The source of these data is paper PMC8791944, “GLUT3 inhibitor discovery through in silico ligand screening and in vivo validation in eukaryotic expression systems” (Scientific Reports, 2022).

The target of the assay is T1, GLUT3S66Y (Homo sapiens, UniProt P11169, S66Y).
T1 construct: expressed in transfected cells; host or cells: Saccharomyces cerevisiae hxt0 strain EBY.S7 (fgy1)
T1 sequence (P11169 1-496 S66Y): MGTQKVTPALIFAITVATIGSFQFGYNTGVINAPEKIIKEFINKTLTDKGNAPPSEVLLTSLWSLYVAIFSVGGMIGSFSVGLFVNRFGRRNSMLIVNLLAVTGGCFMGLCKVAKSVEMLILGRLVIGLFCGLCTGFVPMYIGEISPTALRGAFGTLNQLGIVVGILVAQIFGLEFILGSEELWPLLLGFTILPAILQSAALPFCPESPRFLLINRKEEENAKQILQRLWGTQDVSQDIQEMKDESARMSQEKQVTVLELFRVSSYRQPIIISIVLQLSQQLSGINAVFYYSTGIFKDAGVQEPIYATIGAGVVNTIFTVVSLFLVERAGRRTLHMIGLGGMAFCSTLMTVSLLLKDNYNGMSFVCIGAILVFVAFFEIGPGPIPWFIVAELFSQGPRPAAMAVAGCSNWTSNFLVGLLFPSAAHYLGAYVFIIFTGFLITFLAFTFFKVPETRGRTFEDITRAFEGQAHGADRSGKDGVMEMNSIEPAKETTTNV
The assay can be described thus: Glucose transport assay, GLUT3S66Y expressed in hxt^0 yeast cells EBY.S7. Type of assay: cell-based. The settings on record: for Inhibition mode in GLUT3: Dixon plots, versus glucose; for Ki: Ki for GLUT3 inhibition (Dixon plot), Dixon plots with GLUT3S66Y at 0.75, 1.50 and 3.00 mM glucose, competitive with glucose. The source says: We determined GLUT3 transport activity by measuring the accumulation of radioactive glucose inside whole hxt^0 yeast cells (see “Materials and methods” for details). To select an appropriate substrate concentration for transport inhibition screening, we assessed the KM of glucose for GLUT3 in hxt^0 cells. […] Indeed, functional expression of human GLUTs in hxt^0 cells often requires mutations in genes related to yeast lipid composition[65],[73] as well as single-site mutations that may favor the outward-facing conformation of the transporters[65]–[67].
The plasmids containing functional constructs of GLUT1-5 were transformed in the corresponding hxt^0 strains[65],[66],[73] (EBY.VW4000 for GLUT5S72Y, EBY.S7 for GLUT1, GLUT2∆loopS_Q455R, GLUT3 and GLUT3S66Y, and SDY.022 for GLUT4) and grown on 2% (w/v) agar plates of the respective media supplemented with 1% (w/v) maltose. An initial culture of ~ 10 ml was started with a few colonies and grown for 2–3 days if the media was SC-uracil with 1% (w/v) maltose (GLUT1, GLUT3, GLUT4) or 1–2 days if the media was YEP with 1% (w/v) maltose and 100 µg/ml geneticin G418 (GLUT2∆loopS_Q455R and GLUT5S72Y). Cells were washed once in the corresponding media in which maltose was substituted with 0.1–2% hexose substrate for the expressing GLUT (i.e., SC-uracil, 2% (w/v) glucose for GLUT1; SC-uracil, 0.2% (w/v/) glucose for GLUT3 and GLUT4; YEP, 0.2% (w/v) glucose, 100 µg/ml geneticin G418 for GLUT2∆loopS_Q455R, and YEP, 2% (w/v) fructose for GLUT5 S72Y). Then, cells were transferred in the same media so that OD600nm ~ 0.5 and grown further for 1–2 days.
For transport activity assay, cells in the hexose media were centrifuged (1000×g, 5 min, room temperature), washed once with PBS buffer (10 mM Na2HPO4, 1.8 mM KH2PO4, 2.7 mM KCl, 137 mM NaCl, pH 7.4), and resuspended in PBS buffer at an OD600nm ~ 10; each assay contained 100 µl of this cell solution. Transport activity assay was started by adding C^14-hexose at a substrate concentration corresponding to the respective KM (5 mM glucose for GLUT1 or GLUT4, 3 mM glucose for GLUT3 or 1.5 mM glucose for GLUT3S66Y, 15 mM glucose for GLUT2∆loopS_Q455R, and 10 mM fructose for GLUT5S72Y); for determining the glucose KM in GLUT3 and GLUT3S66Y, substrate concentrations were varied accordingly. […] The filtration membranes were transferred into scintillation vials with 10 ml of Scintillation Solution (BioSafeII; Research Products International, Mount Prospect, IL, USA), and vortexed briefly. The radioactivity was determined with a scintillation counter (Tri-carb 2900TR, Perkin Elmer, USA). As all compounds were solubilized in dimethyl sulfoxide (DMSO), controls for determining the relative transport activity included 1% (v/v) DMSO to represent DMSO used as vehicle control (i.e., 100% activity), and known inhibitors at saturating concentrations, 200 µM phloretin for GLUT1-4[69],[82], and 100 µM N-[4-(methylsulfonyl)-2-nitrophenyl]-1,3-benzodioxol-5-amine (MSNBA) for GLUT5 (i.e., complete inhibition). […] Data were analyzed with GraphPad Prism (San Diego, CA, USA).
Supplementary Figure S3. Dose response curves for G3iA-G3iF inhibition of GLUT3S66Y. […] Error bars represent standard deviations from at least three independent measurements. Graphs, data analysis, and IC50 values were generated with GraphPad (www.graphpad.com).
Inhibition mode of G3iA, G3iC, and G3iE in GLUT3. (A-C) Dixon plots^2 for GLUT3S66Y inhibition by G3iA, G3iC, and G3iE, respectively.

SMILES strings stand for the structures. Where “and” joins values, the source holds several entries; their conditions need not be identical. Identical values can stand only once. Entries after “also recorded” stand apart in the source; their conditions may differ. Like-named read-outs stand apart in the source and are kept apart here.

For `COc1ccccc1-n1c(/C=C/c2ccc(O)cc2)nc2ccc(Br)cc2c1=O` [G3iB, 6-bromo-2-[(E)-2-(4-hydroxyphenyl)ethenyl]-3-(2-methoxyphenyl)quinazolin-4(3H)-one], the IC50 (read-out: IC50 for GLUT3S66Y transport inhibition) was 9.62 ± 1.17 µM.
On to `Cc1cccnc1OC1CCN(c2cc(N3CCCC3CO)ncn2)CC1` (stereo not shown) [G3iC], for which the IC50 was found to be 10.1 ± 2.1 µM, the “Inhibition mode in GLUT3” value is reported as “competitive inhibition with glucose; also recorded: competitive inhibition mode” and the Ki stood at 5.83 ± 0.3 µM.
`Cc1ccccc1CN(Cc1nnc(C(C)(C)C)o1)c1ccc2nc(O)[nH]c2c1` [G3iF] displayed a half-maximal inhibitory concentration (IC50) of 24.8 ± 6 µM.
Take `CC(=O)Nc1ccc(S(=O)(=O)Nc2ccc(Nc3cc(N(C)C)nc(C)n3)cc2)cc1` [G3iA, N-(4-{[(4-{[6-(dimethylamino)-2-methylpyrimidin-4-yl]amino}phenyl)amino]sulfonyl}phenyl)acetamide]: the concentration for half-maximal inhibition (IC50) amounted to 6.21 ± 0.95 µM; the “Inhibition mode in GLUT3” value is given as “competitive inhibition with glucose”; the Ki was 3.49 µM and ~3.5 µM. Further, the “Inhibition mode in GLUT3” value (listed as G2iA) was “competitive inhibition mode”.
As for `O=C(Nc1cccc(Cl)c1)c1cccc(NC(=O)c2cccc([N+](=O)[O-])c2)c1` [G3iE, N-{3-[(3-chloroanilino)carbonyl]phenyl}-3-nitrobenzamide], it took 20.6 ± 2.4 µM to reach half-maximal inhibition (IC50), the “Inhibition mode in GLUT3” value is recorded as “competitive inhibition with glucose; also recorded: competition with glucose; also recorded: competitive inhibition mode” and the Ki was 12.3 ± 0.9 µM.
In turn, `Cc1cc(NC(=O)CCC2Cc3ccccc3NC2=O)nc(-c2ccccc2)n1` (stereo not shown) [G3iD] showed an IC50 of 12.6 ± 1.6 µM.
